How the values were obtained:
Assay type in all cases: in vivo
[1] = tested on: Rhyncosporium secalis (RHYNSE); assay: Field assessment of barley leaf scald, Trial 2 (EC and SC formulations); details: based on AUDPC, winter barley
Description: (§1) Trial 2: Fungicidal treatments of Compound I were applied using two separate adjuvant systems. In the first system, an EC formulation of compound I was tank mixed with Agnique BP-420 (50%) at an active:adjuvant ratio of 1:2. The second adjuvant system was an SC formulation of Compound I tank mixed with Agnique BP-420 EW (38.5%) at an active:adjuvant ratio of 1:2 and Agnique FOH TDA-9 (30% w/w) applied at 0.33% V/V. Both the EC and SC formulation was sprayed on barley plants at rates of 25, 50, 75, 100, 150, 200 and 250 grams active ingredient per hectare (g ai/ha). Fungicidal treatments were applied at B39 (early curative, 1% infection on leaf 1) growth stage of winter barley (HORVW, Maris Otter variety) under natural infection of RHYNSE. The treatment was part of an experimental trial designed as a randomized complete block with four replications.
(§2) Disease severity was recorded as a percentage of visual diseased foliage on whole plot. Barley leaf scald infection was recorded following EPPO PP1/26 guideline prescriptions. Area under the disease progress curve (AUDPC) was calculated for each plot using the sets of recorded severity data. Relative AUDPC (% control based on AUDPC) was calculated as percent of the nontreated control.
(§3) In each case of the following Tables, the rating scale of percent control based on AUDPC is as follows: […]

Puccinia hordei (PUCCHD) = assay: Field assessment of barley rust; details: for Percent Control PUCCHD: based on AUDPC, winter barley, field
Protocol: Field Assessment of Puccinia hordei (PUCCHD) in Barley:
as §1, with “A fungicidal treatment containing Compound I was assessed against barley rust (PUCCHD) in two separate field trials. In each trial, fungicidal” for “Trial 2: Fungicidal”, “Otter and Lomerit” for “Otter”, “PUCCHD.” for “RHYNSE.”
as §2, with “rust” for “leaf scald”
as §3

[2] = tested on: Rhyncosporium secalis (RHYNSE); assay: Field assessment of barley leaf scald, Trial 1 (EC formulation alone or with adjuvants); details: for % Control RHYNSE: based on AUDPC, winter barley, field, EC
Protocol: Field assessment of Rhyncosporium secalis (RHYNSE) in barley:
Trial 1: A fungicidal treatment containing Compound I was assessed against barley scald (RHYNSE) in two separate field trials. In the first trial, a fungicidal treatment containing an EC formulation of compound I by itself and in combination with two separate adjuvants was sprayed on barley plants at rates of 50, 100 and 150 grams active ingredient per hectare (g ai/ha). Fungicidal treatments were applied at B47-51 (curative, 3% infection on leaf 2) growth stage of winter barley (HORVW, Lomerit variety) under natural infection of RHYNSE. The treatment was part of an experimental trial designed as a randomized complete block with four replications and a plot of approximately 2×3 m. Compound I was applied at water volume of 200 L/ha, using a backpack precision plot sprayer (BICYCAIR, Flat Fan Air Assisted Nozle) and pressurized at 220 kPa.
as §2, with “scald infection was assessed several times during the growing season with a final assessment 39 days after application of compound I. The disease” for “scald”
as §3

[3] = 25 g ai/ha, EC + Agnique BP-420
[4] = 25 g ai/ha, SC + Agnique BP-420 EW and Agnique FOH TDA-9
[5] = 50 g ai/ha, EC + Agnique BP-420
[6] = 75 g ai/ha, EC + Agnique BP-420
[7] = 75 g ai/ha, SC + Agnique BP-420 EW and Agnique FOH TDA-9
[8] = 100 g ai/ha, EC + Agnique BP-420
[9] = 100 g ai/ha, SC + Agnique BP-420 EW and Agnique FOH TDA-9
[10] = 150 g ai/ha, EC + Agnique BP-420
[11] = 150 g ai/ha, SC + Agnique BP-420 EW and Agnique FOH TDA-9
[12] = 200 g ai/ha, EC + Agnique BP-420
[13] = 200 g ai/ha, SC + Agnique BP-420 EW and Agnique FOH TDA-9
[14] = 250 g ai/ha, EC + Agnique BP-420
[15] = 250 g ai/ha, SC + Agnique BP-420 EW and Agnique FOH TDA-9

N#Cc1ccc(Oc2ccc(C(F)(F)C(O)(Cn3ncnc3S)c3ccc(F)cc3F)nc2)cc1 (stereo not drawn) [Compound I, 4-((6-(2-(2,4-difluorophenyl)-1,1-difluoro-2-hydroxy-3-(5-mercapto-1H-1,2,4-triazol-1-yl)propyl)pyridin-3-yl)oxy)benzonitrile]
Percent Control RHYNSE [1, 3]: C (26-50)
Percent Control RHYNSE [1, 4]: C (26-50)
Percent Control RHYNSE [1, 5]: C (26-50)
Percent Control RHYNSE ([1]; 50 g ai/ha, SC + Agnique BP-420 EW and Agnique FOH TDA-9): C (26-50)
Percent Control RHYNSE [1, 6]: B (51-74)
Percent Control RHYNSE [1, 7]: C (26-50)
Percent Control RHYNSE [1, 8]: B (51-74)
Percent Control RHYNSE [1, 9]: C (26-50)
Percent Control RHYNSE [1, 10]: B (51-74)
Percent Control RHYNSE [1, 11]: B (51-74)
Percent Control RHYNSE [1, 12]: B (51-74)
Percent Control RHYNSE [1, 13]: B (51-74)
Percent Control RHYNSE [1, 14]: B (51-74)
Percent Control RHYNSE [1, 15]: B (51-74)
fungicidal effect on Puccinia Hordei (Puccinia hordei (PUCCHD); barley rust, general statement): significant fungicidal effect
Percent Control PUCCHD (Puccinia hordei (PUCCHD); [3]): B (51-74)
Percent Control PUCCHD (Puccinia hordei (PUCCHD); [4]): B (51-74)
Percent Control PUCCHD (Puccinia hordei (PUCCHD); [5]): B (51-74)
Percent Control PUCCHD (Puccinia hordei (PUCCHD); 50 g ai/ha, Sc (SC + Agnique BP-420 EW and Agnique FOH TDA-9)): B (51-74)
Percent Control PUCCHD (Puccinia hordei (PUCCHD); [6]): A (75-100)
Percent Control PUCCHD (Puccinia hordei (PUCCHD); [7]): B (51-74)
Percent Control PUCCHD (Puccinia hordei (PUCCHD); [8]): A (75-100)
Percent Control PUCCHD (Puccinia hordei (PUCCHD); [9]): A (75-100)
Percent Control PUCCHD (Puccinia hordei (PUCCHD); [10]): A (75-100)
Percent Control PUCCHD (Puccinia hordei (PUCCHD); [11]): A (75-100)
Percent Control PUCCHD (Puccinia hordei (PUCCHD); [12]): A (75-100)
Percent Control PUCCHD (Puccinia hordei (PUCCHD); [13]): A (75-100)
Percent Control PUCCHD (Puccinia hordei (PUCCHD); [14]): A (75-100)
Percent Control PUCCHD (Puccinia hordei (PUCCHD); [15]): A (75-100)
% Control RHYNSE ([2]; 50 g ai/ha, Agnique BP-420 (50% w/w at 0.15% v/v)): C (26-50)
% Control RHYNSE ([2]; 50 g ai/ha, Agnique BP-420 (50% w/w at 0.3% v/v)): B (51-74)
% Control RHYNSE ([2]; 50 g ai/ha, Agnique SBO-10 (0.15% v/v)): C (26-50)
% Control RHYNSE ([2]; 50 g ai/ha, adjuvant None): C (26-50)
% Control RHYNSE ([2]; 100 g ai/ha, Agnique BP-420 (50% w/w at 0.15% v/v)): B (51-74)
% Control RHYNSE ([2]; 100 g ai/ha, Agnique BP-420 (50% w/w at 0.3% v/v)): B (51-74)
% Control RHYNSE ([2]; 100 g ai/ha, Agnique SBO-10 (0.15% v/v)): B (51-74)
% Control RHYNSE ([2]; 100 g ai/ha, adjuvant None): C (26-50)
% Control RHYNSE ([2]; 150 g ai/ha, Agnique BP-420 (50% w/w at 0.15% v/v)): B (51-74)
% Control RHYNSE ([2]; 150 g ai/ha, Agnique BP-420 (50% w/w at 0.3% v/v)): B (51-74)
% Control RHYNSE ([2]; 150 g ai/ha, Agnique SBO-10 (0.15% v/v)): B (51-74)
% Control RHYNSE ([2]; 150 g ai/ha, adjuvant None): C (26-50)
fungicidal effect on Rhyncosporium secalis ([2]; leaf scald of barley, general statement): significant fungicidal effect
